Read-outs that look alike come from different tables or passages of the source. Positions of bridges follow the written chain, without caps; N, C: chain ends. Non-standard residues stand in square brackets, D forms with d. Residues, ends and D or L forms follow the SMILES beside them. *: point of attachment. Lauroyl = CCCCCCCCCCCC(=O)*; Decanoyl = CCCCCCCCCC(=O)*; dNle = CCCC[C@@H](N)C(=O)O; Nle = CCCC[C@H](N)C(=O)O; Octanoyl = CCCCCCCC(=O)*; Dab = NCC[C@H](N)C(=O)O; Hexanoyl = CCCCCC(=O)*
Experiments:
[1] = Kinetics of insertion into monolayers; assay type: binding; conditions: 25 min after injection, 10 mM Tris pH 7.4, 25 °C, average of three independent experiments (error < 10%); for Increase in surface pressure (Δπ), POPE/POPG: POPE/POPG 6:4, initial pressure 32 mN·m^−1, peptide 0.48 μM; for Increase in surface pressure (Δπ), POPC / Increase in surface pressure (Δπ), POPG: initial pressure 32 mN·m^−1, peptide 0.48 μM
Experimental: (§1) Monolayer studies were performed at room temperature (25 °C) on a monolayer system (NIMA Technology, Coventry, UK) by using a cylindrical PTFE (Teflon®, Wilmington, DE, USA) trough (5 cm diameter) containing a continuously stirred aqueous phase (12 mL, 10 mM Tris pH 7.4) and a Wilhelmy platinum plate connected to an electrobalance. The system was enclosed in a Plexiglass box to reduce surface contamination, and before each run, the plate and the trough were cleaned with hot water at >70 °C to avoid carryover of lipid or peptide. Monolayers of POPG, POPE/POPG (6:4), POPC, or LPS were formed by applying small drops of the lipid stock solutions in CHCl3 on the aqueous subphase with a microsyringe (Hamilton Co., Reno, NV, USA) to achieve a surface pressure of 32 mN·m^−1. After 10 min, allowing for solvent evaporation, a known aliquot of peptide was added without disturbance of the monolayer via an inlet port, and the surface pressure was continuously monitored.

[2] = test system: Escherichia coli ATTC 25922; assay type: cell-based
Experimental: (§2) The minimal peptide concentration required to prevent the growth of a given test organism was determined after incubation overnight at 37 °C and was defined as the MIC. Activity was determined in representative bacteria, Escherichia coli ATTC 25922, Pseudomonas aeruginosa ATTC 27853, and Staphylococcus aureus ATTC 25923, using the broth microdilution method. Serial-two-fold dilutions of peptide (from 0.06 to 32 μg/mL) were performed in Mueller–Hinton broth (MHB) culture medium in sterile 96-well polypropylene microtiter plates inoculated with a final concentration of 5 × 10^5 CFU·mL^−1 of bacteria in each well. Bacteria were in the pre-exponential phase. Each determination was done by triplicate. In order to be considered acceptable, the three MIC results have to differ in only in one well, and the result was always given as the higher of the three. Drug-free and microorganism-free wells were used as positive and negative controls, respectively. Bacterial growth was visually determined on the basis of turbidity.

[3] = test system: Pseudomonas aeruginosa ATTC 27853; assay type: cell-based
Experimental: as §2

[4] = test system: Staphylococcus aureus ATTC 25923; assay type: cell-based
Experimental: as §2

[5] = Kinetics of insertion into monolayers; assay type: binding, Salmonella enterica serotype Minnesota Re 595; conditions: initial pressure 32 mN·m^−1, peptide 0.48 μM, 25 min after injection, 10 mM Tris pH 7.4, 25 °C, average of three independent experiments (error < 10%)
Experimental: as §1

[6] = broth microdilution, MHB, 5 × 10^5 CFU/mL, overnight 37 °C, triplicate, higher of the three
[7] = value in brackets, broth microdilution, MHB, overnight 37 °C, triplicate

SMILES	Increase in surface pressure (Δπ), POPE/POPG [1] [mN·m^−1]	Increase in surface pressure (Δπ), POPC [1] [mN·m^−1]	Increase in surface pressure (Δπ), POPG [1] [mN·m^−1]	MIC EC ([2]; ATTC 25922) [µM]	MIC EC [2, 6] [µg/mL]	MIC PA ([3]; ATTC 27853) [µM]	MIC PA [3, 6] [µg/mL]	MIC SA ([4]; ATTC 25923) [µM]	MIC SA [4, 6] [µg/mL]	Increase in surface pressure (Δπ), LPS [5] [mN·m^−1]	MIC PA [3, 7] [µM]	MIC SA [4, 7] [µM]
CCCCCCCCCC(=O)N[C@@H](CCN)C(=O)N[C@H](C(=O)N[C@@H](CCN)C(=O)N[C@H]1CSSC[C@H](C(N)=O)NC(=O)[C@H](CCN)NC(=O)[C@H](CCN)NC(=O)[C@H](CC(C)C)NC(=O)[C@@H](CC(C)C)NC(=O)[C@H](CCN)NC1=O)[C@@H](C)O [spE-3] (Decanoyl-[Dab]T[Dab]C[Dab][dL]L[Dab][Dab][dC]-NH2; disulfide 4-10)	7.9	1.3	5.7	6.7	8	1.7	2	6.7	8	10.0	–	–
CCCCCCCCCCCC(=O)N[C@@H](CCN)C(=O)N[C@H](C(=O)N[C@@H](CCN)C(=O)N[C@H]1CSSC[C@H](C(N)=O)NC(=O)[C@H](CCN)NC(=O)[C@H](CCN)NC(=O)[C@H](CCCC)NC(=O)[C@@H](CCCC)NC(=O)[C@H](CCN)NC1=O)[C@@H](C)O [spE-8] (Lauroyl-[Dab]T[Dab]C[Dab][dNle][Nle][Dab][Dab][dC]-NH2; disulfide 4-10)	9.8	1.3	7.4	3.3	4	3.3	4	3.3	4	12.5	–	–
CCCCCCCCCCCC(=O)N[C@@H](CCN)C(=O)N[C@H](C(=O)N[C@@H](CCN)C(=O)N[C@H]1CSSC[C@H](C(N)=O)NC(=O)[C@H](CCN)NC(=O)[C@H](CCN)NC(=O)[C@H](CC(C)C)NC(=O)[C@@H](Cc2ccccc2)NC(=O)[C@H](CCN)NC1=O)[C@@H](C)O [spB-4] (Lauroyl-[Dab]T[Dab]C[Dab][dF]L[Dab][Dab][dC]-NH2; disulfide 4-10)	5.0	2.5	6.7	13	16	6.3	8	6.3	8	12.2	–	–
CCCCCC(=O)N[C@@H](CCN)C(=O)N[C@H](C(=O)N[C@@H](CCN)C(=O)N[C@H]1CSSC[C@H](C(N)=O)NC(=O)[C@H](CCN)NC(=O)[C@H](CCN)NC(=O)[C@H](CC(C)C)NC(=O)[C@@H](Cc2ccccc2)NC(=O)[C@H](CCN)NC1=O)[C@@H](C)O [spB-1] (Hexanoyl-[Dab]T[Dab]C[Dab][dF]L[Dab][Dab][dC]-NH2; disulfide 4-10)	4.6	0.9	5.7	> 27	> 32	> 27	> 32	> 27	> 32	12.1	–	–
CCCCCC(=O)N[C@@H](CCN)C(=O)N[C@H](C(=O)N[C@@H](CCN)C(=O)N[C@H]1CSSC[C@H](C(N)=O)NC(=O)[C@H](CCN)NC(=O)[C@H](CCN)NC(=O)[C@H](CC(C)C)NC(=O)[C@@H](CC(C)C)NC(=O)[C@H](CCN)NC1=O)[C@@H](C)O [spE-1] (Hexanoyl-[Dab]T[Dab]C[Dab][dL]L[Dab][Dab][dC]-NH2; disulfide 4-10)	4.1	0.3	2.8	> 28	> 32	> 28	> 32	> 28	> 32	10.6	–	–
CCCCCCCC(=O)N[C@@H](CCN)C(=O)N[C@H](C(=O)N[C@@H](CCN)C(=O)N[C@H]1CSSC[C@H](C(N)=O)NC(=O)[C@H](CCN)NC(=O)[C@H](CCN)NC(=O)[C@H](CC(C)C)NC(=O)[C@@H](CC(C)C)NC(=O)[C@H](CCN)NC1=O)[C@@H](C)O [spE-2] (Octanoyl-[Dab]T[Dab]C[Dab][dL]L[Dab][Dab][dC]-NH2; disulfide 4-10)	6.4	0.6	4.3	14	16	3.4	4	> 27	> 32	9.5	–	–
CCCCCCCCCC(=O)N[C@@H](CCN)C(=O)N[C@H](C(=O)N[C@@H](CCN)C(=O)N[C@H]1CSSC[C@H](C(N)=O)NC(=O)[C@H](CCN)NC(=O)[C@H](CCN)NC(=O)[C@H](CCCC)NC(=O)[C@@H](CCCC)NC(=O)[C@H](CCN)NC1=O)[C@@H](C)O [spE-7] (Decanoyl-[Dab]T[Dab]C[Dab][dNle][Nle][Dab][Dab][dC]-NH2; disulfide 4-10)	6.8	1.4	8.2	1.7	2	–	2	–	8	14.2	1.7	6.7
CCCCCCCC(=O)N[C@@H](CCN)C(=O)N[C@H](C(=O)N[C@@H](CCN)C(=O)N[C@H]1CSSC[C@H](C(N)=O)NC(=O)[C@H](CCN)NC(=O)[C@H](CCN)NC(=O)[C@H](CC(C)C)NC(=O)[C@@H](Cc2ccccc2)NC(=O)[C@H](CCN)NC1=O)[C@@H](C)O [spB-2] (Octanoyl-[Dab]T[Dab]C[Dab][dF]L[Dab][Dab][dC]-NH2; disulfide 4-10)	5.5	1.8	7.0	13	16	6.6	8	26	> 32	12.6	–	–
CCCCCCCC(=O)N[C@@H](CCN)C(=O)N[C@H](C(=O)N[C@@H](CCN)C(=O)N[C@H]1CSSC[C@H](C(N)=O)NC(=O)[C@H](CCN)NC(=O)[C@H](CCN)NC(=O)[C@H](CCCC)NC(=O)[C@@H](Cc2ccccc2)NC(=O)[C@H](CCN)NC1=O)[C@@H](C)O [spB-5] (Octanoyl-[Dab]T[Dab]C[Dab][dF][Nle][Dab][Dab][dC]-NH2; disulfide 4-10)	6.5	0.8	7.3	1.7	2	3.3	4	> 26	> 32	10.6	–	–
CCCCCCCCCCCC(=O)N[C@@H](CCN)C(=O)N[C@H](C(=O)N[C@@H](CCN)C(=O)N[C@H]1CSSC[C@H](C(N)=O)NC(=O)[C@H](CCN)NC(=O)[C@H](CCCNC(=N)N)NC(=O)[C@H](CCCC)NC(=O)[C@@H](Cc2ccccc2)NC(=O)[C@H](CCN)NC1=O)[C@@H](C)O [spB-9] (Lauroyl-[Dab]T[Dab]C[Dab][dF][Nle]R[Dab][dC]-NH2; disulfide 4-10)	6.0	2.2	3.4	3.0	4	3.0	4	1.5	2	11.1	–	–
